Results on 16 compounds are retold here after patent US20210284621A1 (priority 2018, published 2021).

For assay [1], the target named is T1, CB2 receptor (Homo sapiens, UniProt P34972). Description: cell-based. On the set-up: host or cells: cAMP Hunter cell lines. Here is the method: (§1) The PathHunter® β-Arrestin assay monitors the activation of a GPCR in a homogenous, non-imaging assay format using a technology developed by DiscoverX called Enzyme Fragment Complementation (EFC) with β-galactosidase (3-Gal) as the functional reporter. […] EA is fused to β-Arrestin and PK is fused to the GPCR of interest.
T1 sequence (P34972 whole entry, the tested form may be a part): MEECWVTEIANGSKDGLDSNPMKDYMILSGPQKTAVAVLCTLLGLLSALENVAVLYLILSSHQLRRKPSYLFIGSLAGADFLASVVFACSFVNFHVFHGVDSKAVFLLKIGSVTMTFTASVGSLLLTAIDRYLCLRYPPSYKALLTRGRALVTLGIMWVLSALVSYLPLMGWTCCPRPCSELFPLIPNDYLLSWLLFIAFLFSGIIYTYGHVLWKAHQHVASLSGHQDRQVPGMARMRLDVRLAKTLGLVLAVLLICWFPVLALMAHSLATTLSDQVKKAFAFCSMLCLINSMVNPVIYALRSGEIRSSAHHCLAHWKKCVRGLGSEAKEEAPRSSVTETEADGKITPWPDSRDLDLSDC
(§2) PathHunter cell lines were expanded from freezer stocks according to standard procedures. Cells were seeded in a total volume of 20 μL into white walled, 384-well microplates and incubated at 37° C. for the appropriate time prior to testing. For agonist activity determination, cells were incubated with sample to induce response. Intermediate dilution of sample stocks was performed to generate 5× sample in assay buffer. 5 μL of 5× sample was added to cells and incubated at 37° C. or room temperature for 90 to 180 minutes. Vehicle concentration was 1%. Assay signal was generated through a single addition of 12.5 or 15 μL (50% v/v) of PathHunter Detection reagent cocktail, followed by a one hour incubation at room temperature. Microplates were read following signal generation with a PerkinElmer Envision™ instrument for chemiluminescent signal detection. Compound activity was analyzed using CBIS data analysis suite (ChemInnovation, CA). For agonist assays, percentage activity was calculated using the following formula: % Activity=100%×(mean RLU of test sample− mean RLU of vehicle control)/(mean MAX control ligand− mean RLU of vehicle control).

In assay [2] the target is T2, CB1 receptor (Homo sapiens, UniProt P21554). The assay is described as follows: cell-based. The arrangement: host or cells: PathHunter cell lines. Here is the method:
as §1, §2

For assay [3], the target named is T1, CB2 receptor. Description: CB2 competitive radioligand binding assay ([3H] WIN-55,212-2). The arrangement: expressed in transfected cells; host or cells: CHO-K1 cells. Conditions: for Fold Selectivity (CB1/CB2): Table 3, ratio of Ki CB1/CB2; for inhibition at 0.05 µM: 0.05 μM compound, 2.4 nM [3H] WIN-55,212-2, 90 min 37° C. Here is the method:
(§3) J Med Chem. 41(26): 5177-5187 (1998); and Munro S., et al. Molecular characterization of a peripheral receptor for cannabinoids. Nature 365:61-65 (1993).
CB2 Radioligand Binding Assay: A compound of the invention (0.05 μM in 1% DMSO) was incubated with CHO-K1 cells expressing human recombinant CB2 receptor in buffer (20 mM HEPES, pH 7.0, 0.5% BSA) for 90 minutes at 37° C. in the presence of 2.4 nM [H^3] WIN-55,212-2 (CB2 radioligand). % Inhibition was determined as a function of radioligand binding to the […].

The target of assay [4] is T2, CB1 receptor. The assay is described as follows: CB1 competitive radioligand binding assay ([3H] SR141716A). On the set-up: expressed in transfected cells; host or cells: Chem-1 cells. Conditions: for inhibition at 0.5 µM: 0.5 μM compound, 2.0 nM [3H] SR141716A, 90 min 37° C. As for the experimental part: as §3
CB1 Radioligand Binding Assay: A compound of the invention (0.5 μM in 1% DMSO) was incubated with Chem-1 cells expressing human recombinant CB1 receptor in buffer (50 mM HEPES, pH 7.4, 5 mM MgCl2, 1 mM CaCl2, 0.2% BSA) for 90 minutes at 37° C. in the presence of 2.0 nM [H^3] SR141716A (CB1 radioligand). % Inhibition was determined as a function of radioligand binding to the CB1 receptor.

[5] abbreviates: PathHunter agonist mode, read-out: CB2 Activity (β-Arrestin).
Where [6] appears, read: PathHunter agonist mode, read-out: CB1 Activity (β-Arrestin).

The structures appear in SMILES notation. Where two headings read alike, the source gives them in different places.

One may read the Ki as a measure of affinity in units of concentration, obtained from inhibition or displacement. The low end stands for higher affinity, the high end for lower affinity. As usually defined, the inhibition is the change of the read-out against control, counted positive when it falls.

T2 sequence (P21554 whole entry): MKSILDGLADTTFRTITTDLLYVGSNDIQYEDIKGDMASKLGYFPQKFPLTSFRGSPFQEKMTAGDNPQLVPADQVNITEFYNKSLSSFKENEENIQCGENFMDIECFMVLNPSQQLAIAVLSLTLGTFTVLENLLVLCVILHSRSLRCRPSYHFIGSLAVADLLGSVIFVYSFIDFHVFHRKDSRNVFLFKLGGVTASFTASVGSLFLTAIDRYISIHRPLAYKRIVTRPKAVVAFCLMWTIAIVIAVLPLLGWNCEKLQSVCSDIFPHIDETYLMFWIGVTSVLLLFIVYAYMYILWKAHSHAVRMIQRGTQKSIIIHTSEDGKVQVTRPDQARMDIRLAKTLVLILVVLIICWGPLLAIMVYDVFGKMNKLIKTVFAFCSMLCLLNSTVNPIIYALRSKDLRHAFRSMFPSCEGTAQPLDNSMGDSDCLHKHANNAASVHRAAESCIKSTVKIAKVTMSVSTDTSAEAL

Take `CCCCCCC(C)(C)c1cc(O)c2c(c1)OC(C)(C)[C@@H]1CC=C(C(=O)NC3COC3)C[C@@H]21` [Compound 90, (6aR,10aR)-1-hydroxy-6,6-dimethyl-3-(2-methyloctan-2-yl)-N-(oxetan-3-yl)-6a,7,10,10a-tetrahydro-6H-benzo[c]chromene-9-carboxamide]: the values for the EC50 on CB2 receptor [1] (setting [5]) and at CB1 receptor [2] were 2.7 nM and 128 nM, respectively. Moreover, the Ki is 2.5 nM on CB2 receptor [3] and 10 nM on CB1 receptor [4]. The “Fold Selectivity (CB1/CB2)” value at CB2 receptor [3] is recorded as 4.0.

In the case of `CCCCCCC(C)(C)c1cc(O)c2c(c1)OC(C)(C)[C@H]1CC=C(C(=O)O)C[C@H]21` [Compound 20, (6aS,10aS)-1-Hydroxy-6,6-dimethyl-3-(2-methyloctan-2-yl)-6a,7,10,10a-tetrahydro-6H-benzo[c]chromene-9-carboxylic acid], the EC50 on CB2 receptor [1] and on CB1 receptor [2] was > 3000 nM in each case. At CB2 receptor [3], the inhibition at 0.05 µM was found to be 9%. In addition, the inhibition at 0.5 µM on CB1 receptor [4] is -10%.

Consider `CCCCCCC(C)(C)c1cc(O)c2c(c1)OC(C)(C)[C@@H]1CC=C(C#N)C[C@@H]21` [Compound 112, (6aR,10aR)-1-hydroxy-6,6-dimethyl-3-(2-methyloctan-2-yl)-6a,7,10,10a-tetrahydro-6H-benzo[c]chromene-9-carbonitrile], for which the EC50 at CB2 receptor [1] (setting [5]) was 1.4 nM; on CB1 receptor [2] (setting [6]), 2 nM. Further, the Ki at CB2 receptor [3] is 0.7 nM; on CB1 receptor [4], 1 nM. In addition, at CB2 receptor [3], the “Fold Selectivity (CB1/CB2)” value is on record as 1.4.

Regarding `CCCC(C)(C)c1cc(O)c2c(c1)OC(C)(C)[C@@H]1CC=C(C(=O)NC3CCCC3)C[C@@H]21` [Compound 97, (6aR,10aR)-N-cyclopentyl-1-hydroxy-6,6-dimethyl-3-(2-methylpentan-2-yl)-6a,7,10,10a-tetrahydro-6H-benzo[c]chromene-9-carboxamide], the EC50 at CB2 receptor [1] was 17.9 nM; on CB1 receptor [2], > 3000 nM. In addition, the values for the Ki on CB2 receptor [3] and on CB1 receptor [4] were 72 nM and 780 nM, respectively. The “Fold Selectivity (CB1/CB2)” value on CB2 receptor [3] was 10.8.

Turning to `CCCCCCC(C)(C)c1cc(O)c2c(c1)OC(C)(C)[C@@H]1CC=C(C(=O)N3CCNCC3)C[C@@H]21` [Compound 104, ((6aR,10aR)-1-hydroxy-6,6-dimethyl-3-(2-methyloctan-2-yl)-6a,7,10,10a-tetrahydro-6H-benzo[c]chromen-9-yl)(piperazin-1-yl)methanone], the EC50 on CB2 receptor [1] (setting [5]) turned out to be 5 nM; on CB1 receptor [2], 4450 nM. Besides, the Ki at CB2 receptor [3] turned out to be 30 nM; on CB1 receptor [4], 260 nM. On CB2 receptor [3], the “Fold Selectivity (CB1/CB2)” value was determined as 8.7.

`CCCC(C)(C)c1cc(O)c2c(c1)OC(C)(C)[C@@H]1CC=C(C(=O)NC3(C(F)(F)F)CC3)C[C@@H]21` [Compound 102, (6aR,10aR)-1-hydroxy-6,6-dimethyl-3-(2-methylpentan-2-yl)-N-(1-(trifluoromethyl)cyclopropyl)-6a,7,10,10a-tetrahydro-6H-benzo[c]chromene-9-carboxamide]: the results for the EC50 at CB2 receptor [1] (setting [5]) and on CB1 receptor [2] (setting [6]) were 30.5 nM and > 3000 nM, respectively. The Ki was 51 nM at CB2 receptor [3] and 860 nM on CB1 receptor [4]. Besides, the “Fold Selectivity (CB1/CB2)” value on CB2 receptor [3] was determined as 16.9.

As for `CC(C)(CCCCCC(=O)O)c1cc(O)c2c(c1)OC(C)(C)[C@@H]1CC=C(C(=O)O)C[C@@H]21` [Compound 40], the EC50 was > 1000 nM at CB2 receptor [1] (setting [5]) and > 10000 nM on CB1 receptor [2] (setting [6]).

As for `CCCCCCC(C)(C)C1=CC2=C(C(=O)C1=O)[C@@H]1CC(C(=O)O)=CC[C@H]1C(C)(C)O2` [Compound 30, (6aR,10aR)-6,6-dimethyl-3-(2-methyloctan-2-yl)-1,2-dioxo-2,6,6a,7,10,10a-hexahydro-1H-benzo[c]chromene-9-carboxylic acid], the EC50 at CB2 receptor [1] (setting [5]) and on CB1 receptor [2] (setting [6]) was > 3000 nM in each case. In addition, the inhibition at 0.05 µM on CB2 receptor [3] is -2%. Also, the inhibition at 0.5 µM on CB1 receptor [4] was determined as 19%.

`CCCCCCC(C)(C)c1cc(O)c2c(c1)OC(C)(C)[C@@H]1CC=C(C(=O)NC3CNC3)C[C@@H]21` [Compound 103, (6aR,10aR)-N-(azetidin-3-yl)-1-hydroxy-6,6-dimethyl-3-(2-methyloctan-2-yl)-6a,7,10,10a-tetrahydro-6H-benzo[c]chromene-9-carboxamide]: the EC50 was determined as 9.5 nM on CB2 receptor [1] (setting [5]) and 1710 nM at CB1 receptor [2]. The Ki on CB2 receptor [3] was determined as 51 nM; on CB1 receptor [4], 270 nM. Also, the “Fold Selectivity (CB1/CB2)” value on CB2 receptor [3] came to 5.3.

For `CCCCCCC(C)(C)c1cc(O)c2c(c1)OC(C)(C)[C@@H]1CC=C(C(=O)NOC(C)(C)C)C[C@@H]21` [Compound 88, (6aR,10aR)-N-(tert-butoxy)-1-hydroxy-6,6-dimethyl-3-(2-methyloctan-2-yl)-6a,7,10,10a-tetrahydro-6H-benzo[c]chromene-9-carboxamide], the EC50 stood at 1.7 nM at CB2 receptor [1] (setting [5]) and 5.9 nM at CB1 receptor [2]. Also, the Ki on CB2 receptor [3] worked out at 1 nM; on CB1 receptor [4] it was 5.4 nM. Further, on CB2 receptor [3], the “Fold Selectivity (CB1/CB2)” value was determined as 5.7.

As for `CCCCCCC(C)(C)c1cc(O)c2c(c1)OC(C)(C)[C@@H]1CC=C(C(=O)N[C@H](C)C(=O)O)C[C@@H]21` [Compound 2, ((6aR,10aR)-1-Hydroxy-6,6-dimethyl-3-(2-methyloctan-2-yl)-6a,7,10,10a-tetrahydro-6H-benzo[c]chromene-9-carbonyl)-D-alanine], the EC50 on CB2 receptor [1] (setting [5]) and on CB1 receptor [2] (setting [6]) was > 3000 nM throughout. Also, the inhibition at 0.05 µM on CB2 receptor [3] came to 0%. The inhibition at 0.5 µM at CB1 receptor [4] came to 9%.

For `CCCCCCC(C)(C)c1cc(O)c2c(c1)OC(C)(C)[C@@H]1CC=C(C(=O)OCC(O)CO)C[C@@H]21` (stereo partly drawn) [Compound 22, 2,3-Dihydroxypropyl (6aR,10aR)-1-hydroxy-6,6-dimethyl-3-(2-methyloctan-2-yl)-6a,7,10,10a-tetrahydro-6H-benzo[c]chromene-9-carboxylate], the EC50 on CB2 receptor [1] (setting [5]) is 4 nM; at CB1 receptor [2], 42 nM. For the same compound, the inhibition at 0.05 µM at CB2 receptor [3] came out at 92%. Further, the inhibition at 0.5 µM on CB1 receptor [4] came out at 107%.

For the compound `CCCCCCC(C)(C)c1cc(O)c2c(c1)OC(C)(C)[C@@H]1CC=C(C(=O)N[C@H](Cc3ccc(O)cc3)C(=O)O)C[C@@H]21` [Compound 3], the EC50 at CB2 receptor [1] and at CB1 receptor [2] was > 3000 nM throughout. Moreover, the inhibition at 0.05 µM at CB2 receptor [3] turned out to be 8%. On CB1 receptor [4], the inhibition at 0.5 µM turned out to be 13%.

On to `CCCCCCC(C)(C)c1cc(O)c2c(c1)OC(C)(C)[C@@H]1CC=C(C(=O)NS(C)(=O)=O)C[C@@H]21` [Compound 108, (6aR,10aR)-1-hydroxy-6,6-dimethyl-3-(2-methyloctan-2-yl)-N-(methylsulfonyl)-6a,7,10,10a-tetrahydro-6H-benzo[c]chromene-9-carboxamide], for which the EC50 at CB2 receptor [1] came to 29.5 nM; at CB1 receptor [2], 1430 nM. For the same compound, the values for the Ki at CB2 receptor [3] and at CB1 receptor [4] were 302 nM and > 3000 nM, respectively. Moreover, the “Fold Selectivity (CB1/CB2)” value at CB2 receptor [3] was >9.9.

On to `CCCCCCC(C)(C)c1cc(O)c2c(c1)OC(C)(C)[C@@H]1CC=C(C(=O)NC(C)(C)CC(=O)O)C[C@@H]21` [Compound 27, 3-((6aR,10aR)-1-Hydroxy-6,6-dimethyl-3-(2-methyloctan-2-yl)-6a,7,10,10a-tetrahydro-6H-benzo[c]chromene-9-carboxamido)-3-methylbutanoic acid], for which the EC50 at CB2 receptor [1] (setting [5]) and on CB1 receptor [2] (setting [6]) was > 3000 nM throughout. Besides, the inhibition at 0.05 µM on CB2 receptor [3] was 7%. Besides, at CB1 receptor [4], the inhibition at 0.5 µM was determined as 9%.

With `CCCCCCC(C)(C)c1cc(O)c2c(c1)OC(C)(C)[C@@H]1CC=C(C(=O)NC3(C(F)(F)F)CCC3)C[C@@H]21` [Compound 96, (6aR,10aR)-1-hydroxy-6,6-dimethyl-3-(2-methyloctan-2-yl)-N-(1-(trifluoromethyl)cyclobutyl)-6a,7,10,10a-tetrahydro-6H-benzo[c]chromene-9-carboxamide], the EC50 is 3 nM on CB2 receptor [1] (setting [5]) and 12.8 nM on CB1 receptor [2]. In addition, the Ki on CB2 receptor [3] is 1.3 nM; at CB1 receptor [4], 25 nM. Also, on CB2 receptor [3], the “Fold Selectivity (CB1/CB2)” value was 19.2.
